The values below come from PMC11922053 (Science Advances, 2025).

The structures appear in SMILES notation. Where a SMILES comes first, the peptide text is derived from it. Bridges are numbered along the chain shown (N, C = ends). [ ]: non-standard residue; d: D form. The star is where a group is joined. Biotin = O=C1N[C@H]2[C@H](CS[C@H]2CCCCC(=O)*)N1; 2Nal = N[C@@H](Cc1ccc2ccccc2c1)C(=O)O; Gly(cPent) = N[C@H](C(=O)O)C1CCCC1; Hyp = O=C(O)[C@@H]1C[C@@H](O)CN1; Pen = CC(C)(S)[C@H](N)C(=O)O; Api = NC1(C(=O)O)CCNCC1; Ahx = NCCCCCC(=O)O

The test system of the assay is anti-hemagglutinin antibody clone 12ca5. The experiment in a line: Biolayer interferometry. It is filed as binding, mouse. The conditions noted are these: off-target control. For orientation: In BLI a coated tip is dipped into the sample, and binding shifts an interference pattern.

For the molecule `CC1(C)SSC[C@H](NC(=O)[C@H](CO)NC(=O)[C@@H](NC(=O)[C@H](CO)NC(=O)C2(NC(=O)[C@H](Cc3ccc4ccccc4c3)NC(=O)[C@H](CO)NC(=O)CCCCCNC(=O)[C@@H](N)CCCCNC(=O)CCCC[C@@H]3SC[C@@H]4NC(=O)N[C@@H]43)CCNCC2)C2CCCC2)C(=O)N2C[C@H](O)C[C@H]2C(=O)N[C@@H](CO)C(=O)N[C@@H](Cc2ccc(O)cc2)C(=O)N[C@@H](CO)C(=O)N[C@@H](CO)C(=O)N2C[C@H](O)C[C@H]2C(=O)N[C@@H]1C(=O)N[C@@H](CO)C(N)=O` [NCBP-4 Ser Sub] (H-K(Biotin)[Ahx]S[2Nal][Api]S[Gly(cPent)]SC[Hyp]SYSS[Hyp][Pen]S-NH2; disulfide 9-16; N-terminus assumed), the “nonspecific binding to 12ca5 by BLI (in words)” value is “no affinity”.
